We go through four molecules from US12024546B2, “Peptides and anti-cancer compositions including thereof” (GWANGJU INSTITUTE OF SCIENCE AND TECHNOLOGY, priority 2022, dated 2024).

The subject of data set [1] is HCT116 cells. Nature of the data set: Clonogenic assay (survival potential), HCT116 cells overexpressing dysadherin. Particulars: VS-4718 3 μmol/L for 24 h, then clonogenic assay. Type of data set: cell-based, human. Here is the method: (§1) FIGS. 16A-16G illustrate functional involvement of fibronectin/integrin/FAK axis in dysadherin-mediated protumor activity. (FIG. 16A) The number of viable cells was measured with an automated cell counter (Countess II, ThermoFisher Scientific, Waltham, MA, USA) at the indicated time points (n=3/group) in HCT116 cells overexpressing wildtype (full length) or mutant dysadherin. EV-transfected cells were used as controls. […] (FIG. 16B) To determine the effect of fibronectin and FAK signaling on cancer cell growth, dysadherin-OE or control cells were transfected with control siRNA (siCTRL) or siRNAs targeting fibronectin (siFN1). At 24 h after transfection, cells were detached, reseeded, and incubated for 12 h for cell attachment. […] The relative cell numbers were determined by MTT assays (n=3/group). […] The black dotted line indicates initial wound area, and the blue line indicates the cell boundaries determined after a 48-h incubation in serum-free media. […] After a 24-h incubation, the cells that invaded through to the bottom of the membrane were fixed, stained with crystal violet, and counted under a phase-contrast microscope (n=3/group). […]
A clonogenic assay was performed as cells were seeded in 12-well plates (200 cells/well) and cultured for 14 days. The numbers of colonies greater than 50 μm in size were counted after staining with crystal violet (n=3/group).

A further data set deals with wild-type HCT116 cells. Briefly: Cell growth by MTT assay, wild-type HCT116 cells. Particulars: VS-4718 3 μM, 36 h. Type of data set: cell-based, human. Here is the method:
(§2) FIGS. 16A-16G illustrate functional involvement of fibronectin/integrin/FAK axis in dysadherin-mediated protumor activity. (FIG. 16A) The number of viable cells was measured with an automated cell counter (Countess II, ThermoFisher Scientific, Waltham, MA, USA) at the indicated time points (n=3/group) in HCT116 cells overexpressing wildtype (full length) or mutant dysadherin. EV-transfected cells were used as controls. […] (FIG. 16B) To determine the effect of fibronectin and FAK signaling on cancer cell growth, dysadherin-OE or control cells were transfected with control siRNA (siCTRL) or siRNAs targeting fibronectin (siFN1). At 24 h after transfection, cells were detached, reseeded, and incubated for 12 h for cell attachment. Then cells were incubated for 36 h with or without FAK inhibitor treatment (VS-4718, 3 μM). The relative cell numbers were determined by MTT assays (n=3/group). […] Cells were seeded on fibronectin-coated culture plates with or without VS-4718, at 1 or 3 μM. […] The black dotted line indicates initial wound area, and the blue line indicates the cell boundaries determined after a 48-h incubation in serum-free media. […] After a 24-h incubation, the cells that invaded through to the bottom of the membrane were fixed, stained with crystal violet, and counted under a phase-contrast microscope (n=3/group). […]
For orientation: Tetrazolium dyes change colour on reduction, which living cells bring about.

For the next data set, the target named is T1, FAK (Homo sapiens, UniProt Q05397).
T1 construct: endogenous in cells; host or cells: Human CRC cells
T1 sequence (Q05397 whole entry): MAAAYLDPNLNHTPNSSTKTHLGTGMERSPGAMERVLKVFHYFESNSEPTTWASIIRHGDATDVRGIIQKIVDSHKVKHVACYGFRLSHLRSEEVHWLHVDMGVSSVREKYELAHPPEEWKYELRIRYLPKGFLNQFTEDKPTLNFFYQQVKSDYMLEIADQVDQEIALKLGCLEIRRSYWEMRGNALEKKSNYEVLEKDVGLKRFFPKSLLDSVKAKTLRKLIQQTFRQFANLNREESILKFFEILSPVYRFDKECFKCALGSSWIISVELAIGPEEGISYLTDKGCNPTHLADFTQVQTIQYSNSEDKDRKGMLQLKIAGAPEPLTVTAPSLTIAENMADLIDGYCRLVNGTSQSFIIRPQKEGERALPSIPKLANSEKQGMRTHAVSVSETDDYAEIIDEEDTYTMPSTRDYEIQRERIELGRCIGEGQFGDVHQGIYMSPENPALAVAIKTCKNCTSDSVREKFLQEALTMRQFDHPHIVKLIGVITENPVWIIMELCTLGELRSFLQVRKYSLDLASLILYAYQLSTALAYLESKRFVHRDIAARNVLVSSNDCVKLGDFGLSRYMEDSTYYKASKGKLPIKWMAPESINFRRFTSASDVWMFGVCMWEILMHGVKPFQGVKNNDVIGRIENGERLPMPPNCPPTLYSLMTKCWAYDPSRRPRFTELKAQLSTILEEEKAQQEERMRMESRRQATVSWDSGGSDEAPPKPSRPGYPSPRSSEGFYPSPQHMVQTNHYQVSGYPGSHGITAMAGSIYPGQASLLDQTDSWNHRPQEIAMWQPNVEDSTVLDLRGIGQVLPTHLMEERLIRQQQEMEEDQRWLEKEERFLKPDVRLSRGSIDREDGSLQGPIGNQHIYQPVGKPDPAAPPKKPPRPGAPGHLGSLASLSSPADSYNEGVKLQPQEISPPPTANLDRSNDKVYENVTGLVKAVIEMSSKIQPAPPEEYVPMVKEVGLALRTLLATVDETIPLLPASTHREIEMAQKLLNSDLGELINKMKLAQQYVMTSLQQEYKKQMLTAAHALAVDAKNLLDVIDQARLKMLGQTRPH
Nature of the data set: Immunoblot of FAK activation status (p-FAK). The data set is classed as cell-based. On the procedure:
as §1
Tissues or cells were homogenized in RIPA buffer for 20 min on ice. Protein concentrations were determined based on bicinchoninic acid (BCA) assay using the BCA Protein Assay kit (Thermo Fisher Scientific, Waltham, MA, USA). […]

Data set [2] concerns HCT116 cells. Nature of the data set: Wound healing assay (migration), HCT116 cells overexpressing dysadherin. Type of data set: cell-based, human. Particulars: VS-4718 1 μM, 48-h incubation in serum-free media. Here is the method: as §1
Cells were seeded in culture inserts (Ibidi, GmbH, Martinsried, Germany). […] The wound area at time zero or the endpoint was measured using Image-Pro Premier 9.2. The area of wound closure was calculated as a percentage of the initial wound area. […]

Data set [3] has as its system dysadherin-OE HCT116 cells. Nature of the data set: Cell growth by MTT assay, dysadherin-OE HCT116 cells. Type of data set: cell-based, human. The note with it: VS-4718 3 μM, 36 h. On the procedure:
as §2

Data set [4] has as its system HCT116 cells. Briefly: Boyden chamber assay (invasion), HCT116 cells overexpressing dysadherin. The data set is classed as cell-based, human. Particulars: FAK inhibitor 3 μmol/L, 24-h incubation, serum-free media. On the procedure:
as §1, with “(siFN1).” for “(siFN1). At 24 h after transfection, cells were detached, reseeded, and incubated for 12 h for cell attachment.”
The Transwell system (8 μm pore size, Corning) was employed for migration and invasion assays. […] After incubation for 24 h at 37° C., the cells that migrated or invaded the Matrigel through to the bottom of the insert membrane were fixed, stained with crystal violet, and counted under a phase-contrast microscope (Carl Zeiss, biological triplicates).

Data set [5] has as its system fibronectin. Nature of the data set: Pull-down assay of His-tagged synthesized peptides with purified fibronectin. Type of data set: binding. Particulars: His-tagged peptide 20 μg, purified fibronectin 0.5 μg, Ni-NTA agarose beads, Coomassie staining. The text has this:
FIG. 13B illustrates pull-down assay using purified fibronectin and purified His-tagged synthesized peptides to determine the specific sequence with fibronectin-binding activity.
The coding sequences of wild-type or mutant forms of dysadherin were synthesized and cloned into pET151/DTOPO vector by Thermo Fisher Scientific. OE of His-tagged dysadherin was achieved using E. coli grown in Luria-Bertani (LB) broth medium, supplemented with ampicillin. Isopropyl β-D-1-thiogalactopyranoside (IPTG, 0.5 mM) was added into the LB broth medium to induce the expression of the protein of interest, and the mixture was incubated for 5 h at 37° C. The cells were then lysed using RIPA buffer and purified using a Ni-NTA column (R90101, Thermo Fisher Scientific). The concentrated purified protein was measured using the BCA Protein Assay kit (Thermo Fisher Scientific). […] Presence of His-tagged dysadherin and fibronectin proteins were determined by immunoblot analysis using anti-His rabbit monoclonal antibody (#12698, Cell Signaling Technology) and anti-fibronectin rabbit polyclonal antibody (ab2413, Abcam, Cambridge, MA, USA). […] The purity of each peptide was determined to be over 95% by LC-MS. […] The presence of His-tagged dysadherin, dysadherin peptides, and fibronectin was determined by staining with Coomassie Brilliant Blue.

Data set [6] deals with dysadherin KO SW480 cells. Nature of the data set: Cell viability by MTT assay, dysadherin KO SW480 cells. The data set is classed as cell-based, human. The note with it: MTT assay at 48 hours after peptide treatment. Here is the method:
(§3) FIGS. 13C-13D illustrate cell viability were measured by an MTT assay at 48 hours after the treatment of annotated peptide in SW480 cells with and without KO of dysadherin.
A dysadherin-KO (FXYD5^−/−) SW480 cell line was generated by Transomic Technologies (Huntsville, AL, USA). Specific gRNA targeting different regions of the human FXYD5 gene was designed and cloned into the pCLIPAll (EFS-Puro) expression vector. SW480 cells were infected with lentiviral particles and selected with puromycin for 1 week. Dilution cloning was performed to obtain different monoclonal cell populations. […] For establishment of the dysadherin-OE cell line, HCT116 cells were transfected with dysadherin expression vector (pcDNA-L3HSV) and selected with G418 for 1 week. Dilution cloning was performed and OE of the dysadherin gene was confirmed by RT-qPCR and immunoblot analysis. […]
(§4) Cells were seeded in 6-well or 96-well plates and incubated for various time points. The numbers of viable cells were measured with an automated cell counter (Countess II, ThermoFisher Scientific, Waltham, MA, USA) or measured by staining with thiazolyl blue tetrazolium bromide (MTT, Sigma-Aldrich, St. Louis, MO, USA), and the absorbance was measured using a microplate spectrophotometer (Bio-Tek Instruments Inc., Winooski, VT, USA).

A further data set has as its system SW480 cells. Nature of the data set: Cell viability by MTT assay, SW480 cells. The data set is classed as cell-based, human. The note with it: MTT assay at 48 hours after peptide treatment. Here is the method:
as §3, §4

Data set [7] concerns the target T2, fibronectin (Homo sapiens, UniProt P02751).
T2 construct: purchased Sigma Aldrich
Briefly: Pull-down assay of purified His-tagged dysadherin proteins with purified fibronectin protein. The data set is classed as binding. Particulars: purified His-tagged dysadherin proteins 1 μg, purified fibronectin 0.5 μg, anti-His antibody, immunoblot. The text has this:
FIGS. […] illustrate the extracellular domain of dysadherin directly binds fibronectin. (FIG. 12A) Co-IP with anti-dysadherin antibody (M53) and subsequent immunoblot analyses validate the binding of dysadherin to endogenous fibronectin in CRC cells. (FIG. 12B) Co-IP with M53 and subsequent immunoblot analyses confirm that the quantity of dysadherin-bound fibronectin is decreased by dysadherin KO but increased by dysadherin OE. (FIG. 12C) Whole-protein lysates and membrane fractions were extracted from cells at the indicated time points. Culture media were collected and applied to dot blot assays to compare the quantities of secreted fibronectin. […]
The coding sequences of wild-type or mutant forms of dysadherin were synthesized and cloned into pET151/DTOPO vector by Thermo Fisher Scientific. […] The concentrated purified protein was measured using the BCA Protein Assay kit (Thermo Fisher Scientific). […] Presence of His-tagged dysadherin and fibronectin proteins were determined by immunoblot analysis using anti-His rabbit monoclonal antibody (#12698, Cell Signaling Technology) and anti-fibronectin rabbit polyclonal antibody (ab2413, Abcam, Cambridge, MA, USA). […] The purity of each peptide was determined to be over 95% by LC-MS. […] The presence of His-tagged dysadherin, dysadherin peptides, and fibronectin was determined by staining with Coomassie Brilliant Blue.
A general note: A western blot detects proteins with antibodies after separation by electrophoresis.

T2 sequence (P02751 32-2477, species assumed): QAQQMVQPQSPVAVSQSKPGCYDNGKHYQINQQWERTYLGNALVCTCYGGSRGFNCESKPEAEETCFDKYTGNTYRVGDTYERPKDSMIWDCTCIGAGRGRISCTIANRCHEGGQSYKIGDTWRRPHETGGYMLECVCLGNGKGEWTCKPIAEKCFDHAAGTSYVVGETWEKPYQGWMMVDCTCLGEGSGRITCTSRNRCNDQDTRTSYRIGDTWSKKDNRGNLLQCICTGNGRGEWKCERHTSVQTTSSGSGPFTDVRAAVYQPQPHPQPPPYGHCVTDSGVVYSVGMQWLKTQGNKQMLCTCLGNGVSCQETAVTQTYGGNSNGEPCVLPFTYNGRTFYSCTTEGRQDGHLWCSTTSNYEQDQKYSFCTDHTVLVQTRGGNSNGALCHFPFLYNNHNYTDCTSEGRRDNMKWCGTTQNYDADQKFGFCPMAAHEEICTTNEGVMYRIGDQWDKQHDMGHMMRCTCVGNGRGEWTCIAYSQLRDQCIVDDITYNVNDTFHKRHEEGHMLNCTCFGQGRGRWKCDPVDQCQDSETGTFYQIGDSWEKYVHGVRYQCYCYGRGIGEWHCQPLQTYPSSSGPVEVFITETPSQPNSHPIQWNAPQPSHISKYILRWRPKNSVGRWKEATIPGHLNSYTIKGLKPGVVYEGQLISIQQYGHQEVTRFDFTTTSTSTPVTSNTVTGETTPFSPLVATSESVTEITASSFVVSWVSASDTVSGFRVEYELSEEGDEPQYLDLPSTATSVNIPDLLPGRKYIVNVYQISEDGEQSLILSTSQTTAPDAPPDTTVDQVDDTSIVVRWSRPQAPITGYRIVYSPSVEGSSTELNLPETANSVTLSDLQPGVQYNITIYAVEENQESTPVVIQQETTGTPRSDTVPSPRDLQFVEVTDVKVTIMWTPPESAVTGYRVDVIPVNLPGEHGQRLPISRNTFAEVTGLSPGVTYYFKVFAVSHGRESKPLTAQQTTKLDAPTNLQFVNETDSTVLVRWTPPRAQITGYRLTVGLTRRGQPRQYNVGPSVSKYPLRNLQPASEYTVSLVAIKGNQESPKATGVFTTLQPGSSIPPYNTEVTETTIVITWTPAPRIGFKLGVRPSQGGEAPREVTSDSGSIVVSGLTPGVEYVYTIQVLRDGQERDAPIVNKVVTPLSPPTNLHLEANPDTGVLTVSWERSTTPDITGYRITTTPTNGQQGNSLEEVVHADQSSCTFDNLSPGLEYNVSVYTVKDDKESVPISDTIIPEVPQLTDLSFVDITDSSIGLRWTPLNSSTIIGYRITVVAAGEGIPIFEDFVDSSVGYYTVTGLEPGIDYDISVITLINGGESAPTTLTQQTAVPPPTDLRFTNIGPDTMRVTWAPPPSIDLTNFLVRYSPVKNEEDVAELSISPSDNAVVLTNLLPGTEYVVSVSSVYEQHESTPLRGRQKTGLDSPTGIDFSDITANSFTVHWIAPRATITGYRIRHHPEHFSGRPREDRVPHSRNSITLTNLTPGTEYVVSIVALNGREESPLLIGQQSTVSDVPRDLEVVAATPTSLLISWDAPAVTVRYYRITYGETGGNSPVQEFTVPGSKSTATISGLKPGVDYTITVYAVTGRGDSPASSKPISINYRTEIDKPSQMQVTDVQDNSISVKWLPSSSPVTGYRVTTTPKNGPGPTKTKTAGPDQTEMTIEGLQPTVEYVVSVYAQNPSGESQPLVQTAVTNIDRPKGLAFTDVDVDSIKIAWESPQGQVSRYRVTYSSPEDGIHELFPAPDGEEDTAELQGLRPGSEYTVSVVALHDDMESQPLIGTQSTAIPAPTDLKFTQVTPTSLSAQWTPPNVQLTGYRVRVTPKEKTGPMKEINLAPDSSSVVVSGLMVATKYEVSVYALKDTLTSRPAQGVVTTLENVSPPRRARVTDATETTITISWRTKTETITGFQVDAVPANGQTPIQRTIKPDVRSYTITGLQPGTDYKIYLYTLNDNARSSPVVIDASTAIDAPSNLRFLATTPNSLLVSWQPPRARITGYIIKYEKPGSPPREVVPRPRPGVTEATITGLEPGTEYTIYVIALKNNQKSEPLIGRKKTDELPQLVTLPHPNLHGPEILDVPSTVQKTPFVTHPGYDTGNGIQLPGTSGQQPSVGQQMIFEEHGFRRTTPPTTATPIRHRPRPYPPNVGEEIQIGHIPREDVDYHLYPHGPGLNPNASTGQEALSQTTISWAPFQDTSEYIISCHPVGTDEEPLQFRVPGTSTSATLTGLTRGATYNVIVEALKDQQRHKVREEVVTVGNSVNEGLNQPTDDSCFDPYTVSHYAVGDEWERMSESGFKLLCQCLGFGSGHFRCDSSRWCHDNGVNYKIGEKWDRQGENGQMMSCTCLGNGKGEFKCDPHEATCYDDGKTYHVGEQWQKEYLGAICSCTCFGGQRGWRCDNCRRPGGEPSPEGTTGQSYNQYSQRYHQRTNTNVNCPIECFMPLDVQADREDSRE

In the case of `CNC(=O)c1ccccc1Nc1cc(Nc2ccc(N3CCOCC3)cc2OC)ncc1C(F)(F)F` [VS-4718], the “dysadherin-induced increase in CRC survival” value with HCT116 cells [1] is recorded as “attenuated”. Besides, the “growth of wild-type HCT116 cells” value in the data set with wild-type HCT116 cells is given as “attenuated the growth of wild-type HCT116 cells”. Further, at FAK (cells on fibronectin-coated plates, VS-4718 at 1 or 3 μM, 4 h), the “fibronectin-induced FAK activation” value was “inhibitory effects”. Also, the “basal p-FAK levels” value at FAK (treatment with VS-4718, FIG. 16C) is recorded as “diminished basal p-FAK levels”. Besides, the “dysadherin-induced increase in CRC migration” value in the data set on HCT116 cells [2] was “attenuated”. The “dysadherin-induced CRC growth” value in data set [3] is “diminished dysadherin-induced CRC growth”. The “dysadherin-induced increase in CRC invasion” value in the data set on HCT116 cells [4] is given as “attenuated”.

For the molecule “KAAHPTDDTTTLSERPSPST (listed as Homo sapiens) [N #4]”, in the data set with fibronectin [5], the fibronectin-binding activity result was “displayed fibronectin-binding activity”. In addition, in [6], the “effect against dysadherin KO SW480 cells” value is listed as “limited effect”. Further, the “cytotoxicity against SW480 cells” value with SW480 cells was “selective cytotoxicity”.

As for “PADETPQPQTQTQQLEGTDGP (listed as Homo sapiens) [N #3]”, in the data set on fibronectin [5], the fibronectin-binding activity result is “displayed fibronectin-binding activity”. Further, in data set [6], the “effect against dysadherin KO SW480 cells” value was “limited effect”. The “cytotoxicity against SW480 cells” value with SW480 cells is “selective cytotoxicity”.

B1: dysadherin: purified recombinant His-tagged dysadherin protein, full-length (wild-type), from E. coli (protein)
chain: QTLKDTTSSSSADSTIMDIQVPTRAPDAVYTELQPTSPTPTWPADETPQPQTQTQQLEGTDGPLVTDPETHKSTKAAHPTDDTTTLSERPSPSTDVQTDPQTLKPSGFHEDDPFFYDEHTLRKRGLLVAAVLFITGIIILTSGKCRQLSRLCRNRCR
Turning to B1, in the data set with fibronectin [7], the binding to fibronectin entry is recorded as “direct binding”.
